Assays:
[1] = test system: glucose production in isolated rat hepatocytes; assay: Inhibition of glucose production in rat hepatocytes (Example I); format: cell-based; conditions: for IC50: lactate/pyruvate as substrates, 1 hour
Procedure: Methods: Isolated rat hepatocytes were prepared from fasted Sprague Dawley rats (250-300 g) as described in Example G. Hepatocytes (75 mg wet weight/ml) were incubated in 1 ml Krebs bicarbonate buffer containing 10 mM glucose, and 1 mg/ml BSA. Incubations were carried out in a 95% oxygen, 5% carbon dioxide atmosphere in closed, 50-ml Falcon tubes submerged in a rapidly shaking water bath (37° C.). After 10 minutes of equilibration, lactate and pyruvate were added to 10 mM and 1 mM concentrations, respectively. Addition of these gluconeogenic substrates was immediately followed by the addition of test compound to concentrations ranging from 1-100 μM. After 1 hour, an aliquot (0.25 ml) was removed, and transferred to an Eppendorf tube and centrifuged. The resulting supernatant (50 μl) was then assayed for glucose content using a Glucose Oxidase kit (Sigma Chemical Co.) as per the manufacturer's instructions.

[2] = test system: mouse; assay: Byproduct toxicity testing in vivo (Example N)
Procedure: Plasma samples are subjected to a standard chemistry panel in which markers of liver function are evaluated.

[3] = molecular target: T1, human recombinant CYP3A4 (Homo sapiens, UniProt P08684); assay: Activation by recombinant CYP3A4 (Example F); format: in vitro ADME; conditions: microsomes from baculovirus-infected insect cells co-expressing CYP3A4 and cytochrome p450 reductase
T1 construct: purchased Panvera Corp., Madison, Wis; host or cells: baculovirus-infected insect cells (microsomes)
Procedure: Activation of 1.3 was evaluated in reactions containing microsomes from baculovirus-infected insect cells co-expressing human recombinant CYP3A4 and cytochrome p450 reductase (Panvera Corp., Madison, Wis.).
Methods: Reaction mixture composition was similar to that described in Example D. Reactions were terminated by addition of methanol to a final concentration of 60% and products were analyzed by HPLC as described in Example A.

[4] = molecular target: T2, FBPase (Homo sapiens, UniProt P09467); assay: FBPase inhibition in vitro; format: biochemical
T2 sequence (P09467 1-338): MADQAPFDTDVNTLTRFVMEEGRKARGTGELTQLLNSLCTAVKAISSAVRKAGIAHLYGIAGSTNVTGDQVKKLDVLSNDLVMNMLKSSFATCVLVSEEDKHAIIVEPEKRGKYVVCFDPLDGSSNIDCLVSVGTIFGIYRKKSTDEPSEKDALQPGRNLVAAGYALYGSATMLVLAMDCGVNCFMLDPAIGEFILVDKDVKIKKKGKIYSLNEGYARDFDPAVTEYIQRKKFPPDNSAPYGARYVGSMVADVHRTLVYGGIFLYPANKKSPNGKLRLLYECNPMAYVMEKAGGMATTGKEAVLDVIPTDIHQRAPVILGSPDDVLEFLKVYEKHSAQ

[5] = Chemical stability in potassium phosphate buffers (Example A); format: physicochemical; conditions: pH 7.0 potassium phosphate buffer, room temperature, 12-hour incubation
Procedure: Methods: Aliquots of a 10 μg/mL solution of Compound 1.3 in potassium phosphate buffers at pH 3 and 7 (room temperature) were sampled hourly for 12 hours. Samples were analyzed by reverse phase HPLC with use of a Beckman Ultrasphere C8 column (4.6×250 mm). The column was equilibrated and eluted with a gradient from 50 mM sodium phosphate pH 5.5 to 80% acetonitrile at a flow rate of 1.0 mL/min. Detection was at 254 nm. Under these conditions, Compound 1.3 was separated from 2-Amino-5-isobutyl-4-[2-(5-phosphonomonoamide)furanyl]thiazole, and from 2-Amino-5-isobutyl-4-(2-furanyl)thiazole (retention times=17, 15.8, and 15.6 min., respectively).

[6] = test system: hepatocytes isolated from rats in which CYP3A4 expression was induced; assay: Activation in hepatocytes from dexamethasone-induced rats (Example J); format: cell-based, rat; conditions: two hours of incubation
Procedure: Methods: Hepatocytes were prepared from fed, dexamethasone-induced Sprague-Dawley rats (300 g) according to the procedure of Berry and Friend (Berry, M. N., Friend, D. S. J. Cell Biol. 43, 506-520 (1969)) as modified by Groen (Groen, A. K. et al. Eur J. Biochem 122, 87-93 (1982)). Hepatocytes (62 mg wet weight/ml) were incubated in 2 ml Krebs bicarbonate buffer containing 10 mM glucose, and 1 mg/ml BSA. Incubations were carried out in a 95% oxygen, 5% carbon dioxide atmosphere in closed, 50-ml Falcon tubes submerged in a rapidly shaking water bath (37° C.). 3.1 and 3.2 were dissolved in methanol to yield 25 mM stock solutions, and then diluted into the cell suspension to yield a final concentration of 250 μM. Two hours following administration, aliquots of the cell suspension were removed and spun through a silicon/mineral oil layer into 10% perchloric acid. The cell extracts in the acid layers were neutralized by the addition of 0.3 volumes of 3M KOH/3M KHCO3, and the extract was then centrifuged, filtered (0.2 micron) and loaded onto an anion exchange HPLC column equilibrated with 70% A (10 mM ammonium phosphate pH 3.5, 6% ETOH) and 30% B (1 M ammonium phosphate pH 3.5, 6% ETOH). […] Detection was by uv absorbance at 254 nm. Peak areas were quantified by comparison of peak areas to authentic standards spiked into naive hepatocyte extracts. […]

[7] = test system: rat hepatocytes; assay: Activation in isolated rat hepatocytes, intracellular triphosphate generation (Examples G, H); format: cell-based; conditions: 250 μM, two hours of incubation
Procedure: Methods: Hepatocytes were prepared from fed, dexamethasone-induced Sprague-Dawley rats (300 g) according to the procedure of Berry and Friend (Berry, M. N., Friend, D. S. J. Cell Biol. 43, 506-520 (1969)) as modified by Groen (Groen, A. K. et al. Eur J. Biochem 122, 87-93 (1982)). Hepatocytes (62 mg wet weight/ml) were incubated in 2 ml Krebs bicarbonate buffer containing 10 mM glucose, and 1 mg/ml BSA. Incubations were carried out in a 95% oxygen, 5% carbon dioxide atmosphere in closed, 50-ml Falcon tubes submerged in a rapidly shaking water bath (37° C.). 3.1 and 3.2 were dissolved in methanol to yield 25 mM stock solutions, and then diluted into the cell suspension to yield a final concentration of 250 μM. Two hours following administration, aliquots of the cell suspension were removed and spun through a silicon/mineral oil layer into 10% perchloric acid. […] Detection was by uv absorbance at 254 nm. Peak areas were quantified by comparison of peak areas to authentic standards spiked into naive hepatocyte extracts.
Methods: 3.2 and acyclovir were evaluated in isolated rat hepatocytes at 250 μM as described in Example G.

[8] = test system: P450 isozymes (CYP3A4, CYP1A2, CYP2C9) in human microsomal protein; conditions: 0-100 μM inhibitor, 250 μM prodrug, 37° C.
Procedure: Prodrugs are evaluated for human microsome-catalyzed conversion to MPO2—(NHR^6−) in the absence and presence of specific inhibitors of three major P450 isozymes: ketoconazole (CYP3A4), furafylline (CYP1A2), and sulfaphenazole CYP2C9).
Methods: Reactions (0.5 ml @37° C.) consist of 0.2 M KH2PO4, 13 mM glucose-6-phosphate, 2.2 mM NADP+, 1 unit of glucose-6-phosphate dehydrogenase, 0-2.5 mg/ml human microsomal protein (In Vitro Technologies, Inc.), 250 μM prodrug, and 0-100 μM P450 isozyme inhibitor. Reactions are stopped by addition of methanol to a concentration of 60%, and filtered ([…] filter). MPO2—(NHR^6−) is quantified by standard reverse phase, ion-pairing, or ion exchange HPLC methods. Eluted peaks are quantified relative to authentic standards of known concentration.

[9] = test system: rat embryos in culture; conditions: cited from earlier work

T1 sequence (P08684 2-503): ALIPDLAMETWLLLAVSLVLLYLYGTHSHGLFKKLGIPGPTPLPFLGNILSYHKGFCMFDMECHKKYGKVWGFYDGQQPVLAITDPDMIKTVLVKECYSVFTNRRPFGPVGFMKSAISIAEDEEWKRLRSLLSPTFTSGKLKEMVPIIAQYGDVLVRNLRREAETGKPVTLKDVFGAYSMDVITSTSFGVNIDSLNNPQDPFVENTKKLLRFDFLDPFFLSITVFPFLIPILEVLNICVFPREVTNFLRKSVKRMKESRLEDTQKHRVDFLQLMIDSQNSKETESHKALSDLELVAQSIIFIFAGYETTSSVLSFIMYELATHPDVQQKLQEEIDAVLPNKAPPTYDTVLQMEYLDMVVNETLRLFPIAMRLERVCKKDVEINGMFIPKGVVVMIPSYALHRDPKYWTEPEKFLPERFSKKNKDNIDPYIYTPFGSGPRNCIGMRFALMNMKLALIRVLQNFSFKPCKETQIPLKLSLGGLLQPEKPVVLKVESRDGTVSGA

CC(C)Cc1sc(N)nc1-c1ccco1 [2-Amino-5-isobutyl-4-(2-furanyl)thiazole]
IC50 ([1]; Rattus norvegicus, Hepatocyte): 2.5 µM

CC(=O)Nc1ccc(O)cc1 [Acetaminophen]
reduction of hepatic glutathione ([2]; 50, 250 and 500 mg/kg): dose-dependent reduction
depletion of hepatic glutathione ([2]; highest dose): > 80%

CC(C)Cc1sc(N)nc1-c1ccc(P2(=O)NCCC(c3ccccc3)O2)o1 (centres unmarked) [Compound 1.3, 2-Amino-5-isobutyl-4-{2-[5-(1-phenyl-1,3-propyl)phosphoramido]furanyl}thiazole]
rate of generation of 2-Amino-5-isobutyl-4-[2-(5-phosphonomonoamide)furanyl]thiazole [3]: 4.2 nmoles/min./nmole CYP3A4
IC50 [1]: 8.5 µM
lower potency relative to 2-Amino-5-isobutyl-4-(2-furanyl)thiazole ([1]; ratio of IC50's for glucose production): ~3 fold
inhibition of FBPase in vitro [4]: not an inhibitor
stability [5]: fully stable

CSc1sc(N)nc1-c1ccc(P2(=O)OC(c3ccccc3)CCN2C)o1 (centres unmarked) [Compound 1.7, 2-Amino-5-methylthio-4-{2-[5-(N-methyl-1-phenyl-1,3-propyl)phosphoramido]furanyl}thiazole]
levels of 2-Amino-5-methylthio-4-[2-(5 phosphono)furanyl]thiazole formed [6]: 20.5 ± 3 nmol/g

Nc1ncnc2c1ncn2[C@@H]1O[C@H](COP2(=O)NC(c3ccccc3)CCO2)[C@@H](O)[C@@H]1O (stereo partly drawn) [Compound 3.1, 5′-O-(2-oxo-4-Phenyl-1,3,2-oxazaphosphorin-2-yl)-9-β-D-arabinofuranosyl-adenine]
Intracellular concentration of nucleoside triphosphate (AraATP from 3.1, acyclovir-triphosphate from 3.2) [7]: 15.7 ± 16 nmol/g

CC(=O)N1CCN(c2ccc(OCC3COC(Cn4ccnc4)(c4ccc(Cl)cc4Cl)O3)cc2)CC1 (centres unmarked) [Ketoconazole]
inhibition of formation of MPO2—(NHR^6−) from prodrug [8]: inhibits the formation of MPO2—(NHR^6−) in a dose-dependent fashion

C=CC(=O)c1ccccc1 [Phenyl vinyl ketone]
teratogenic activity [9]: lacks teratogenic activity

Cc1nc2c([nH]1)c(=O)n(C)c(=O)n2Cc1ccco1 [furafylline]
inhibition of formation of MPO2—(NHR^6−) from prodrug [8]: no significant inhibition

Nc1ccc(S(=O)(=O)Nc2ccnn2-c2ccccc2)cc1 [sulfaphenazole]
inhibition of formation of MPO2—(NHR^6−) from prodrug [8]: no significant inhibition

Reference: patent US7816345B2, “Phosphorus-containing prodrugs” (Metabasis Therapeutics, Inc., priority 1999, dated 2010)
